In patent US20260306631A1, “CHIMERIC RECEPTORS” (St. Jude Children's Research Hospital, Inc., priority 2023, published 2026):
pEC50: −log10 of the molar value.

Key:
[1] = tested on: Jun.EpoR ZipRs or the Jun.GHR ZipRs; experiment: Ability of ZipRs to phosphorylate STAT5 under ruxolitinib treatment, T cells expressing Jun.EpoR ZipRs or Jun.GHR ZipR; assay type: cell-based, human; conditions: role: inhibitor; increasing concentrations of ruxolitinib
Description: (§1) FIGS. 2A-2F show Jun leucine zipper-based homodimers activating STAT5 resulting in improved T cell viability, and that they are inhibited by ruxolitinib. (FIGS. 2A and 2B) pSTAT5 geometric mean fluorescence intensity (FIG. 2A) or percent positive (FIG. 2B) in Jun ZipR+ cells (N=4 biological replicates, One-way ANOVA, ** p<0.01, *** p<0.001, **** p<0.0001). (FIGS. 2C-2E) Frequency of pSTAT5+ cells following 48-hour treatment with indicated concentrations of ruxolitinib in vitro (N=3 biological replicates). (FIG. 2F) Frequency of dead cells (Annexin V+ Dead+), apoptotic cells (Annexin V+ Dead-), necrotic cells (Annexin V− Dead+), and live cells (Annexin V− Dead-) after 7 days of cytokine starvation without or with treatment of 5 M ruxolitinib in vitro (N=2 biological replicates, two-way ANOVA, **** p<0.0001 on Live cell population)
(§2) As a potential safety switch for the constitutively active homodimeric ZipRs, T cells expressing Jun.EpoR ZipRs or the Jun. GHR ZipRs were treated with increasing concentrations of ruxolitinib, an FDA-approved JAK1/2 inhibitor. All ZipRs were inhibited by ruxolitinib (FIGS. 2C-2E) as judged by their ability to phosphorylate STAT5.
(§3) Generation of ZipR transduced T cells. […]

[2] = tested on: Jun.GHR (ZipGHR: cJunzip.hGHR, cJun SEQ ID NO: 9, hGHR SEQ ID NO: 20); experiment: Frequency of pSTAT5+ cells after ruxolitinib treatment, T cells expressing Jun.GHR ZipR; assay type: cell-based; conditions: role: inhibitor; STAT5 phosphorylation (pSTAT5+ cells), human T cells, 48-hour treatment
Description: as §1, §2, §3

[3] = tested on: Jun.EpoR.del5 (ZipEpoR.del5: cJunzip.hEpoRmut.del5, cJun SEQ ID NO: 9, hEpoRmut SEQ ID NO: 18; 5 amino acid TM domain deletion); experiment: Frequency of pSTAT5+ cells after ruxolitinib treatment, T cells expressing Jun.EpoR.del5 ZipR; assay type: cell-based; conditions: role: inhibitor; STAT5 phosphorylation (pSTAT5+ cells), human T cells, 48-hour treatment
Description: as §1
(§4) The following constructs were generated and tested: • i) Jun.IL-2Rβ chain constructs with 0 to 6 alanine insertions to interrogate all potential intracellular orientations; • ii) Jun.EpoR constructs with 0, 1, 3, or 5 amino acid TM domain deletions to interrogate receptors with 0, 100, 300, or 500 degrees of rotation; • iii) Jun. GHR; and • iv) Jun. 18B.MyD88 fused to EpoR or GHR (Jun.MyD88.EpoR or Jun.MyD88.GHR).
(§5) As a potential safety switch for the constitutively active homodimeric ZipRs, T cells expressing Jun.EpoR ZipRs or the Jun. […]

[4] = tested on: Jun.EpoR.del1 (ZipEpoR.del1: cJunzip.hEpoRmut.del1, cJun SEQ ID NO: 9, hEpoRmut SEQ ID NO: 14; 1 amino acid TM domain deletion); experiment: Frequency of pSTAT5+ cells after ruxolitinib treatment, T cells expressing Jun.EpoR.del1 ZipR; assay type: cell-based; conditions: role: inhibitor; STAT5 phosphorylation (pSTAT5+ cells), human T cells, 48-hour treatment
Description: as §1, §4, §5

[5] = tested on: Jun.EpoR- or Jun.GHR ZipRs expressing human T cells; experiment: T cell survival after 7-day cytokine starvation with concurrent ruxolitinib treatment; assay type: cell-based; conditions: role: inhibitor, 7 days without cytokines, printed as 5 M in FIG. 2F legend
Description: as §1
In addition to activation of STAT5, the ability for Jun ZipRs to improve T cell function was determined. Jun.EpoR- or Jun.GHR ZipRs expressing human T cells were cultured without cytokines for 7 days in vitro before quantifying the frequency of live, dead, and dying cells. ZipR signaling allowed cells to survive 7-day cytokine starvation, which was abrogated by concurrent treatment with ruxolitinib (FIG. 2F). […]
Cytokine starvation. […] To quantify apoptosis, cells were labeled with annexin V (BD Biosciences) and eBioscience Fixable viability dye (Invitrogen).

[6] = tested on: Jun.EpoR (ZipEpoR: cJunzip.hEpoRmut, cJun SEQ ID NO: 9, hEpoRmut SEQ ID NO: 10); experiment: Frequency of pSTAT5+ cells after ruxolitinib treatment, T cells expressing Jun.EpoR ZipR; assay type: cell-based; conditions: role: inhibitor; STAT5 phosphorylation (pSTAT5+ cells), human T cells, 48-hour treatment
Description: as §1, §2, §3

[7] = tested on: Jun.EpoR.del3 (ZipEpoR.del3: cJunzip.hEpoRmut.del3, cJun SEQ ID NO: 9, hEpoRmut SEQ ID NO: 16; 3 amino acid TM domain deletion); experiment: Frequency of pSTAT5+ cells after ruxolitinib treatment, T cells expressing Jun.EpoR.del3 ZipR; assay type: cell-based; conditions: role: inhibitor; STAT5 phosphorylation (pSTAT5+ cells), human T cells, 48-hour treatment
Description: as §1, §4, §5

N#CC[C@H](C1CCCC1)n1cc(-c2ncnc3[nH]ccc23)cn1 [Ruxolitinib, ruxolitinib]
inhibition of ZipRs as judged by their ability to phosphorylate STAT5 [1]: inhibited
pEC50 [2]: 8.20
pEC50 [3]: 7.03
pEC50 [4]: 6.32
survival of 7-day cytokine starvation by ZipR signaling [5]: abrogated
pEC50 [6]: 6.18
pEC50 [7]: 7.24
